Structures are written as SMILES. Like-named read-outs stand apart in the source and are kept apart here.

This note sets out measurements from patent publication US12077503B2, “Substituted cyclic amides and their use as herbicides” (FMC CORPORATION, priority 2015, dated 2024).

Type in all cases: in vivo
In test [1] the test system is sedge, umbrella (small-flower umbrella sedge, Cyperus difformis). The test is described as follows: Test B flooded paddy test. Conditions: Cyperus difformis, Flood, 250 g ai/ha; scale of 0 to 100 where 0 is no effect and 100 is complete control; read-out: Sedge, Umbrella plant response rating. In outline: (§1)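 Visual ratings (0 none to 100 complete control) are relative to untreated plants, taken 13–15 d after treatment in a greenhouse. Test material went straight into floodwater standing 3 cm above the soil, kept constant, on plants at the 2-leaf stage.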

Test [2] deals with barnyardgrass (Echinochloa crus-galli). As to the kind of experiment: Test B flooded paddy test. Conditions: Echinochloa crus-galli, Flood, 250 g ai/ha; scale of 0 to 100 where 0 is no effect and 100 is complete control; read-out: Barnyardgrass plant response rating. Summed up:
as §1

The test system of test [3] is rice (Oryra sativa). The test is described as follows: Test B flooded paddy test. The conditions noted are these: Oryza sativa, Flood, 250 g ai/ha; scale of 0 to 100 where 0 is no effect and 100 is complete control; read-out: Rice plant response rating. In outline:
as §1

In test [4] the test system is ducksalad (Heteranthera limosa). As to the kind of experiment: Test B flooded paddy test. The conditions noted are these: Heteranthera limosa, Flood, 250 g ai/ha; scale of 0 to 100 where 0 is no effect and 100 is complete control; read-out: Ducksalad plant response rating. Summed up: as §1
Test [5] concerns pigweed (Amaranthus retroflexus). As to the kind of experiment: Test A postemergence. The conditions noted are these: Amaranthus retroflexus, post-emergence, 240 h, 125 g ai/ha, postemergence; visual injury after approximately 10 d; 0 to 100 scale (0 no effect, 100 complete control); read-out: Plant response rating, Pigweed. Summed up: (§2)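 Ratings of 0 (no effect) to 100 (complete control) come from visual comparison with untreated controls roughly 10 d after treatment. Test chemicals, formulated in a non-phytotoxic solvent mixture with surfactant, were applied either as a preemergence directed soil spray on seeded soil or postemergence to one- to two-leaf plants 2 to 10 cm tall.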

Test [6] deals with giant foxtail (Setaria faberii). The test is described as follows: Test A postemergence. Conditions: Setaria faberi, post-emergence, 240 h, 125 g ai/ha, postemergence; visual injury after approximately 10 d; 0 to 100 scale (0 no effect, 100 complete control); read-out: Plant response rating, Foxtail, Giant. In outline:
as §2

Test [7] relates to barnyardgrass (Echinochloa crus-galli). As to the kind of experiment: Test A postemergence. Conditions: Echinochloa crus-galli, post-emergence, 240 h, 125 g ai/ha, postemergence; visual injury after approximately 10 d; 0 to 100 scale (0 no effect, 100 complete control); read-out: Plant response rating, Barnyardgrass. In outline: as §2
Test [8] concerns ryegrass, Italian (Italian ryegrass, Lolium multiflorum). The test is described as follows: Test A postemergence. The conditions noted are these: Lolium multiflorum, post-emergence, 240 h, 125 g ai/ha, postemergence; visual injury after approximately 10 d; 0 to 100 scale (0 no effect, 100 complete control); read-out: Plant response rating, Ryegrass, Italian. In outline: as §2
Test [9] deals with Kochia (Kochia scoparia). As to the kind of experiment: Test A preemergence. Conditions: Bassia scoparia, pre-emergence, 240 h; for pest or weed control at 500 g/ha: 500 g ai/ha. Summed up:
as §2

Test [10] has as its system pigweed (Amaranthus retroflexus). The test is described as follows: Test A preemergence. The conditions noted are these: Amaranthus retroflexus, pre-emergence, 240 h; for pest or weed control at 125 g/ha: 125 g ai/ha, visual rating after approx. 10 d, 0 to 100 scale where 0 is no effect and 100 is complete control; for pest or weed control at 500 g/ha: 500 g ai/ha.
Test [11] relates to giant foxtail (Setaria faberii). As to the kind of experiment: Test A preemergence. The conditions noted are these: Setaria faberi, pre-emergence, 240 h; for pest or weed control at 125 g/ha: 125 g ai/ha, visual rating after approx. 10 d, 0 to 100 scale where 0 is no effect and 100 is complete control; for pest or weed control at 500 g/ha: 500 g ai/ha. In outline:
as §2

For test [12], the system named is barnyardgrass (Echinochloa crus-galli). As to the kind of experiment: Test A preemergence. Conditions: Echinochloa crus-galli, pre-emergence, 240 h; for pest or weed control at 125 g/ha: 125 g ai/ha, visual rating after approx. 10 d, 0 to 100 scale where 0 is no effect and 100 is complete control; for pest or weed control at 500 g/ha: 500 g ai/ha. In outline: as §2

Test [13] concerns ryegrass, Italian (Italian ryegrass, Lolium multiflorum). The test is described as follows: Test A preemergence. Conditions: Lolium multiflorum, pre-emergence, 240 h; for pest or weed control at 125 g/ha: 125 g ai/ha, preemergence, visual rating after approx. 10 d, 0 to 100 scale where 0 is no effect and 100 is complete control, read-out: Plant response rating, Ryegrass, Italian. In outline:
as §2

Test [14] concerns ragweed (common ragweed, Ambrosia elatior). As to the kind of experiment: Test A preemergence. Conditions: Ambrosia artemisiifolia, pre-emergence, 240 h; for pest or weed control at 125 g/ha: 125 g ai/ha, visual rating after approx. 10 d, 0 to 100 scale where 0 is no effect and 100 is complete control; for pest or weed control at 500 g/ha: 500 g ai/ha. Summed up:
as §2

Setting [15] is: preemergence, read-out: Plant response rating, Pigweed.
Setting [16] is: preemergence, read-out: Plant response rating, Foxtail, Giant.
Where [17] appears, read: preemergence, read-out: Plant response rating, Barnyardgrass.
The mark [18] stands for this setting: preemergence, read-out: Plant response rating, Ragweed.

Take `Cc1cc([C@H]2CNC(=O)[C@@H]2C(=O)Nc2ccccc2F)ccc1Cl` [Compound 789]: the pest or weed control at 250 g/ha in [1] was determined as 0%; in [2] it was 20%; in test [3] it was 0%; in test [4], 100%. The pest or weed control at 125 g/ha turned out to be 0% in [5]; 30% in [6]; 80% in test [7]; 0% in [8]; 0% in [10] (setting [15]); 60% in test [11] (setting [16]). For the same compound, the pest or weed control at 125 g/ha in [12] (setting [17]) amounted to 90%; in test [13] it was 0%; in test [14] (setting [18]), 0%. In addition, the pest or weed control at 500 g/ha in test [9] (Preemergence, visual injury vs untreated controls after approximately 10 d, read-out: Kochia plant response rating (0 to 100 scale where 0 is no effect and 100 is complete control)) is 30%; in [10] (Preemergence, visual injury vs untreated controls after approximately 10 d, read-out: Pigweed plant response rating (0 to 100 scale where 0 is no effect and 100 is complete control)), 20%; in test [11] (Preemergence, visual injury vs untreated controls after approximately 10 d, read-out: Foxtail, Giant plant response rating (0 to 100 scale where 0 is no effect and 100 is complete control)), 90%; in test [12] (Preemergence, visual injury vs untreated controls after approximately 10 d, read-out: Barnyardgrass plant response rating (0 to 100 scale where 0 is no effect and 100 is complete control)) it was 90%; in test [13] (500 g ai/ha, Preemergence, visual injury vs untreated controls after approximately 10 d, read-out: Ryegrass, Italian plant response rating (0 to 100 scale where 0 is no effect and 100 is complete control)) it was 0%; in [14] (Preemergence, visual injury vs untreated controls after approximately 10 d, read-out: Ragweed plant response rating (0 to 100 scale where 0 is no effect and 100 is complete control)) it was 0%.
For the compound `COc1cc([C@H]2CN(C)C(=O)[C@@H]2C(=O)Nc2ccccc2F)ccc1C(F)(F)F` [Compound 768], the pest or weed control at 250 g/ha in test [1] stood at 0%; in test [2], 60%; in [3], 15%; in test [4], 85%. For the same compound, the pest or weed control at 125 g/ha in test [5] was 0%; in test [6] it was 80%; in [7], 70%; in test [8], 30%; in test [9] (125 g ai/ha, preemergence, visual rating after approx. 10 d, 0 to 100 scale where 0 is no effect and 100 is complete control, read-out: Plant response rating, Kochia), 60%; in test [10] (setting [15]), 0%. Moreover, the pest or weed control at 125 g/ha is 90% in [11] (setting [16]), 90% in [12] (setting [17]), 0% in [13] and 0% in test [14] (setting [18]). The pest or weed control at 500 g/ha in test [9] (preemergence, 0 to 100 scale, 0 = no effect, 100 = complete control, read-out: Plant response rating, Kochia) turned out to be 70%; in test [10] (preemergence, 0 to 100 scale, 0 = no effect, 100 = complete control, read-out: Plant response rating, Pigweed) it was 20%; in test [11] (preemergence, 0 to 100 scale, 0 = no effect, 100 = complete control, read-out: Plant response rating, Foxtail, Giant) it was 90%; in test [12] (preemergence, 0 to 100 scale, 0 = no effect, 100 = complete control, read-out: Plant response rating, Barnyardgrass) it was 90%; in test [14] (preemergence, 0 to 100 scale, 0 = no effect, 100 = complete control, read-out: Plant response rating, Ragweed) it was 0%.
